Experimental data as given in patent US20260191974A1, “B7-H3 TARGETING LIGANDS AND METHODS OF USE” (The University of North Carolina at Chapel Hill, priority 2022, published 2026).
Several values for one entry are separate records, joined by “and”; a condition that tells them apart may be missing. Identical values can stand only once. *1 amine or outer side, *2 acyl side, *3 side chain or, on linkers, in order; H or OH if unused. Where a SMILES comes first, the peptide text is derived from it. Bridges are numbered along the chain shown (N, C = ends). Where no end group is shown, it is not given here. [ ]: non-standard residue; d: D form. ξ: configuration not given here. mXylylene = c1cc(C[*:1])cc(C[*:2])c1; Nle = CCCC[C@H](N)C(=O)O; ξP = O=C(O)C1CCCN1

What was measured:
B7-H3 [1] = assay: kd (s^-1)
Text: (§1) Table printed on a drawing sheet, FIG. 4F
Head of the field: kd (s^-1)
(§2) The patent's description of the figure: FIGS. 4A-4G. (FIG. 4A) Selection schematic detailing the selection process for identifying binders against B7-H3. (FIG. 4B) qPCR results of the mTG mediated B7-H3 selection. (FIG. 4C) B7-H3 selection results and complete NGS analysis of B7-H3 hits. (FIG. 4D) NGS data of the selection hits. […] Arrow indicates the peptide pursued for binding validation. (FIG. 4E) EIC ([M+2], 948.91 m/z) traces corresponding to the product of the mTG reaction with linear B1.1 peptide and the synthetic lactam, disulfide peptide. (FIG. 4F) Surface Plasmon Resonance (SPR) analysis of the selected peptide (B1.1), the Met9Nle variant, and the linear variant. […] The selected B1.1 and the Met9Nle variant were analyzed at analyte concentrations of 7.5, 15, 30, 60, 120 nM. The linear variant was analyzed at analyte concentrations of 50, 100, 200, 400, 800 nM. […] (FIG. 4G) Individual SPR curves. Fitted curve and raw data are shown.
(§3) First copying reader's note: Brackets drawn on the SELECTED and MET9NLE sequences join C to C (above) and Q to K (below), marking a bicyclic peptide; LINEAR has no brackets.
(§4) Where the first naming reader finds the target: passage: Binding affinities were assessed for each peptide by surface plasmon resonance (SPR) against biotinylated B7-H3.

B7-H3 [2] = assay: ka (M^-1s^-1)
Text: as §1
Head of the field: ka (M^-1s^-1)
as §2, §3, §4

biotinylated B7-H3 = molecular target: T1, biotinylated B7-H3 (Homo sapiens, UniProt Q5ZPR3); assay: Surface Plasmon Resonance (SPR) analysis against biotinylated B7-H3; conditions: biotinylated B7-H3, 25° C., 1:1 binding kinetics model
T1 sequence (Q5ZPR3 29-534): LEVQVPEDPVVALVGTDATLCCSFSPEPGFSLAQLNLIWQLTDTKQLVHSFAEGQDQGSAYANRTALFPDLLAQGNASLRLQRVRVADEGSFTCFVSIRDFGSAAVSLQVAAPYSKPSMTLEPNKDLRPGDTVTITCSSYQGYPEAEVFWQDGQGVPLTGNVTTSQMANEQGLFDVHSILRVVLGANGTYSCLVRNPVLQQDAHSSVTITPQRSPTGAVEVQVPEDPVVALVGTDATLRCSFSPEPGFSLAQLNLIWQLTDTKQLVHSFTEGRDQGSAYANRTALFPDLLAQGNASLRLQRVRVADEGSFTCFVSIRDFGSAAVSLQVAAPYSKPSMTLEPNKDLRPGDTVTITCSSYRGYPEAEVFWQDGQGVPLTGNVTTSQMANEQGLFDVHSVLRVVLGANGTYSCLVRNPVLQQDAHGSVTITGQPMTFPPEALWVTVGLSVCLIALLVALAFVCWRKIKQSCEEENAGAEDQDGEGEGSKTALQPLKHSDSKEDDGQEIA
Text: as §2, with “FIGS.” for “The patent's description of the figure: FIGS.”
Surface Plasmon Resonance (SPR) analysis. Binding kinetics between our selected peptide (and variants) and biotinylated B7-H3 (B7-H3b) were assessed through SPR analysis using a BIACORE 8K SPR system (GE Healthcare). The running buffer was 1×PBS pH7.5, 0.05% TWEEN® 20 and all analysis was carried out at 25° C. B7-H3b was loaded onto a NeutrAvidin SPR Chip (Series S Sensor Chip NA, 29407997, Cytiva) at a flow rate of […] to a surface density of 1000-1500 response units. Analyte was then injected over a series of five concentrations and quantified by BIACORE single-cycle kinetics method. For our selected peptide (B1.1) and the Met9Nle variant a range of 7.5, 15, 30, 60, 120 nM were run. For the linear variant concentrations of 50, 100, 200, 400, 800 nM were run. Binding sonograms were generated using a standard 1:1 binding kinetics model and kinetics constants determined using standard BIACORE evaluation software.

human and murine B7-H3 [3] = assay: Ka (M^-1s^-1)
Method: (§5) Table printed on a drawing sheet, FIG. 24C
Head of the field: Ka (M^-1s^-1)
(§6) The patent's description of the figure: FIGS. 24A-24C. SPR analysis of the selected peptides B1.1 and JP5. The B1.1 variant was analyzed at analyte concentrations of 7.5, 15, 30, 60, and 120 nM (FIG. 24A) and the JP5 variant was analyzed at analyte concentrations of 22.2, 66.6, 200, 600 and 1800 nM (FIG. 24B). (FIG. 24C) Binding kinetics of each peptide.
(§7) First copying reader's note: Bracket lines drawn over and under the sequences mark ring closures that the text cells cannot show: C-C above and Q-K below in oxidized B1.1, Q-K below only in reduced B1.1, and C-C above in JP5.
(§8) Where the first naming reader finds the target: passage: Surface plasmon resonance was used to evaluate binding of B1.1 and JP5 to both human and murine B7-H3 (FIGS. 24A-24C)

[4] = Serum stability in 50% fetal bovine serum; format: in vitro ADME; conditions: 37° C., read-out: peptide remaining intact
Method: Serum stability of JP3 and JP5 was assessed. Peptides (JP3 or JP5) were incubated in 50% fetal bovine serum (diluted in media) at 37° C. and samples were taken over a time course spanning 24 h. Samples were mixed with cold methanol to crash out serum protein, and the supernatant containing the peptides was collected and run on MS to determine the amount of peptide present at each time point.

[5] = system: Raji cells expressing murine B7-H3; assay: Live imaging with GFP-tagged endosome/lysosome reporters in Raji cells expressing murine B7-H3; format: cell-based; conditions: JP3-PEG-TAMRA or JP5-PEG-TAMRA at 250 nM for 5 hours
Method: FIGS. 22A-22B. Live imaging of an example targeting ligand uptake in Raji cells expressing murine B7-H3 pre-incubated with GFP-tagged reporters for early (Rab5a) and late (Rab7a) endosomes or early (Lamp1) lysosomes. Cells were treated with JP3-PEG-TAMRA (FIG. 22A) or JP5-PEG-TAMRA (FIG. 22B) at 250 nM for 5 hours, cytospun with live cell imaging subsequently performed.
Live imaging of an example targeting ligand uptake in Raji cells expressing murine B7-H3 pre-incubated with GFP-tagged reporters for early (Rab5a) and late (Rab7a) endosomes or early (Lamp1) lysosomes is shown in FIG. 22A (JP3) and FIG. 22B (JP5).

B7-H3 [6] = molecular target: T2, B7-H3 (Homo sapiens, UniProt Q5ZPR3); assay: mRNA display validation assay of NGS hits against B7-H3; format: binding; conditions: naïve NNK10 library as a control
T2 sequence (Q5ZPR3 29-534): T1 sequence (Q5ZPR3 29-534)
Text: FIGS. 11A-11F. Dibromoxylene (DBX) mediated B7-H3 selection. (FIG. 11A) Selection schematic details the selection process for identifying binders against B7-H3 using DBX. (FIG. 11B) qPCR results of the DBX mediated B7-H3 selection. (FIG. 11C) Mean frequency vs. number of sequences. (FIG. 11D) NGS data of the selection hits from Selections (rounds 3 and 5), named sequences indicate sequences purchased for binding validation. (FIG. 11E) Validation assay identified hits from NGS data run through the selection process (outlined in (FIG. 11A)), with the naïve NNK10 library as a control.
A background screen against selection components is carried out prior to the selection against B7-H3 to remove non-specific binders. FIG. 11D includes sequences from NGS data with named sequences evaluated for binding validation. […] Exemplary DBX hit structures are shown in FIG. 12, with points of cargo attachment designated with arrows.

human and murine B7-H3 [7] = assay: KD (nM)
Method: as §5
Head of the field: KD (nM)
as §6, §7, §8

binding affinity towards B7-H3 (biotinylated B7-H3)	Compound	Ka (M^-1s^-1) (human and murine B7-H3 [3])	remaining at 24 h [4]	subcellular localization (Rab5a, Rab7a, Lamp1 reporters) [5]	binding in validation assay (B7-H3 [6])	other results
similar	CCCC[C@@H]1NC(=O)[C@H](CO)NC(=O)[C@H](Cc2c[nH]cn2)NC(=O)[C@@H]2CSSC[C@H](NC(=O)[C@H]([C@@H](C)O)NC(=O)[C@H](Cc3ccc(O)cc3)NC(=O)[C@H](Cc3ccccc3)NC1=O)C(=O)N[C@H](C(=O)N[C@@H](CO)C(=O)NCC(N)=O)CCCCNC(=O)CC[C@H](NC(=O)[C@H](CC(C)C)NC(=O)[C@H](C)NC(=O)[C@H](Cc1c[nH]c3ccccc13)NC(C)=O)C(=O)N[C@@H](CC(C)C)C(=O)N2 [Met9Nle variant, acWALQLCHSNleFYTCKSG] (Ac-WALELCHS[Nle]FYTCKSG-NH2; lactam 4-14; disulfide 6-13)	–	–	–	–	kd (s^-1) (B7-H3 [1]): 4.48e^-2; ka (M^-1s^-1) (B7-H3 [2]): 9.55e^5; Kd (biotinylated B7-H3; read-out: binding affinity towards B7-H3): 46.9 nM
–	CC[C@H](C)[C@@H]1NC(=O)[C@H](CC(=O)O)NC(=O)[C@H](CCCNC(=N)N)NC(=O)[C@H]([C@@H](C)CC)NC(=O)[C@H]([C@@H](C)O)NC(=O)[C@H](Cc2c[nH]c3ccccc23)NC(=O)[C@@H](NC(C)=O)CSCc2cccc(c2)CSC[C@@H](C(=O)NCC(=O)O)NC(=O)[C@H](CCCNC(=N)N)NC(=O)[C@H]([C@@H](C)O)NC(=O)CNC(=O)[C@H](CC(N)=O)NC1=O [JP5, N-terminal acetylated CWTIRDINGTRCG] (Ac-CWTIRDINGTRCG-OH; linker 1-12 via mXylylene; N-terminus and C-terminus assumed)	1.25e^5 and 1.02e^5	80%	predominantly cell surface localization of JP5 was observed with some rare evidence of endosomal uptake	strong B7-H3 binders	–
–	CC[C@H](C)[C@@H]1NC(=O)[C@@H](NC(C)=O)CSCc2cccc(c2)CSC[C@@H](C(=O)NCC(=O)O)NC(=O)[C@@H]2CCCN2C(=O)[C@H](CC(C)C)NC(=O)[C@H](Cc2ccccc2)NC(=O)[C@H](CCCNC(=N)N)NC(=O)C2CCCN2C(=O)[C@H]([C@@H](C)CC)NC(=O)[C@H](CCCNC(=N)N)NC(=O)[C@H]([C@@H](C)O)NC(=O)[C@H](Cc2c[nH]c3ccccc23)NC(=O)[C@H](C(C)C)NC1=O (stereo partly drawn) [JP3, N-terminal acetylated CIVWTRIPRFLPCG] (Ac-CIVWTRI[ξP]RFLPCG-OH; linker 1-13 via mXylylene)	–	~40%	Co-localization of JP3 and Rab5a	strong B7-H3 binders	–
–	acWALQLCHSNleFYTCKSGK(AZO)G [OXIDIZED B1.1 | 296]	–	–	–	–	Kd (human and murine B7-H3 [7]): 161 nM
–	acWALQLCHSNleFYTCKSGK(AZO)G [REDUCED B1.1 | 294]	7.444e^7	–	–	–	–
no detectable binding interaction	linear variant of B1.1: linear form of B1.1 without lactam and disulfide cyclization (WALQLCHSMFYTCKSG-NH2; cysteine pairing not given here)	–	–	–	–	binding affinity towards B7-H3 (biotinylated B7-H3; listed as linear precursor peptide): did not bind
